According to paper PMC8764033, “Single-molecule analysis of specificity and multivalency in binding of short linear substrate motifs to the APC/C” (Nature Communications, 2022):
Values joined by “and” are separate entries in the source; they are usually repeats but may differ in a detail not shown here. Equal values may be shown once. “Also recorded” adds a separate entry of the source. Where a SMILES comes first, the peptide text is derived from it.

Key:
Type in all cases: binding
[1] = target: T1, hCdc20^WD40 (Homo sapiens, UniProt Q12834); assay: SMOR assay, human Cdc20 WD40; details: for Dwell Time: Clb5: Not 3x shutter speed
T1 construct: human Cdc20 (aa 162–484; pNH188); made in house; host or cells: Sf9 insect cells (baculovirus)
Experimental: (§1) Activators were cloned into the pFastBac HT A vector, with an N-terminal 2xStrep-Tag II. For some experiments, we constructed vectors for expression of the WD40 domains of yeast Cdh1 (aa 241–550; pNH144), human Cdh1 (aa 165–484; pNH164), or human Cdc20 (aa 162–484; pNH188). For SMOR, a C-terminal GFP tag was added. Bacmid plasmids are listed in Supplementary Table 3. Plasmids were transformed into DH10Bac cells, and purified Bacmid was used to transfect Sf9 cells to generate P1 baculovirus, which was used to generate P2 virus. SF9 cells were infected with the P2 virus for 48 h. Flash-frozen pellets were lysed by sonication or high-pressure homogenization in lysis buffer B (50 mM Tris-HCl pH 8, 150 mM KCl, 0.5 mM EDTA, 1 mM DTT, 10% Glycerol, EDTA-free protease inhibitor tablet, 1 µg ml^−1 pepstatin A). After the lysate was applied to the StrepTrap column, the column was washed with wash buffer B (lysis buffer B lacking protease inhibitors) and eluted in the same buffer containing 2.5 mM desthiobiotin.
(§2) For all SMOR experiments, 24 × 50 mm high precision glass coverslips (Bioscience Tools) and drilled microscope slides were passivated with a combination of PEG and PEG-biotin (coverslips) or PEG only (slides) following a previously published protocol for SiMPull[31]. Reaction chambers (~20 µl) were created using double-sided tape and epoxy. Protein was immobilized on the surface with 0.2 mg ml^−1 NeutrAvidin in buffer C (20 mM HEPES pH 7.5, 150 mM KCl, 10% glycerol, 0.05% Tween-20, 1 mM DTT). Excess NeutrAvidin was washed away and incubated with either biotin-conjugated mouse monoclonal anti-Strep-Tag II antibody (LSBio, Cat. No. LS-C203632-100) or biotin-conjugated rabbit polyclonal anti-GFP antibody (Rockland, Cat. No. 600-406-215) diluted in buffer C + BSA (0.1 mg ml^−1; Molecular Biology Grade Bovine Serum Albumin). Activator WD40 and activated APC/C (typically 50 µl containing about 65 ng APC/C, of which only a small fraction is immobilized on the glass) were immobilized using anti-Strep-Tag II, while APC/C alone was immobilized with anti-GFP. SMOR results were similar when performed in the buffer (wash buffer B) used in polarization anisotropy.
(§3) To capture dynamic protein–protein interactions, dye-labeled substrate diluted in buffer C + BSA was added to the chamber containing immobilized proteins. Interactions were imaged by TIRF microscopy as described below. For optimal signal-to-noise ratio, peptide concentration was no greater than 1 nM. Protein substrates included Hsl1 aa 667–872 and a C-terminal HaloTag followed by a TAP tag, and were produced by translation in rabbit reticulocyte lysates using TnT Quick Coupled Transcription/Translation System (Promega) (see Supplementary Table 5 for plasmids). Protein was purified with magnetic IgG beads and labeled on the bead with JF549 or JF646 dye so that unbound dye could be washed away. Purified dye-labeled protein was then cleaved from the beads using TEV protease. Before adding substrate to the reaction chamber, oxygen scavenging reagents were added (10 nM protocatechuate-3,4-dioxygenase, 2.5 mM protocatechuic acid, and 1 mM Trolox)[41]. A detailed description of the SMOR analysis pipeline is found in Supplementary Note 1.
(§4) Microscopy was performed with a Nikon Eclipse TE2000-E with Perfect Focus with a 100 × 1.49na oil, Apo TIRF DIC N2, 0.13-0.2, WD0.12 objective. Movies were recorded using the Andor iXon DU-897E-CSO. For visualizing GFP-tagged protein, a 491 nm laser was used with an ET525/50 (Chroma) filter for emission. For visualizing JF549-labeled substrate, a 561 nm laser was used with an ET595/50 (Chroma) filter for emission. For visualizing all Cy5-labeled peptides and JF646-labeled substrates, a 640 nm laser was used with an ET685/70 filter (Chroma) for emission. […]

[2] = target: T2, Cdh1^WD40 (Saccharomyces cerevisiae, UniProt P53197); assay: SMOR assay (single-molecule off-rate, TIRF), yeast Cdh1^WD40
T2 construct: the WD40 domains of yeast Cdh1 (aa 241–550; pNH144); made in house; host or cells: Sf9 insect cells (baculovirus)
T2 sequence (P53197 241-550): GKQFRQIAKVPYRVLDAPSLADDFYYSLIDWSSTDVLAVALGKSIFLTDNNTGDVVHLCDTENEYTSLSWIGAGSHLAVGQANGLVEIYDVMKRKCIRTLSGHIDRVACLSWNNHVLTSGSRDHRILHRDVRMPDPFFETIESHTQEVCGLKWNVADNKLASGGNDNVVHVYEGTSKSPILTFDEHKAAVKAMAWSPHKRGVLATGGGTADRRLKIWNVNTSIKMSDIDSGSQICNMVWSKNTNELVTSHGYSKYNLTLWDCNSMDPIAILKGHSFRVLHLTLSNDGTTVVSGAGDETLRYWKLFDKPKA
Experimental: as §1, §2, §3, §4

[3] = target: T3, hCdh1^WD40 (Homo sapiens, UniProt Q9UM11); assay: SMOR assay, human Cdh1 WD40; details: for mean dwell time: representative of two independent experiments, ± SE, ligand ≤1 nM, buffer C + BSA
T3 construct: human Cdh1 (aa 165–484; pNH164); made in house; host or cells: Sf9 insect cells (baculovirus)
Experimental: as §1, §2, §3, §4

[4] = target: T4, Cdh1 WD40 domain (yeast) (Saccharomyces cerevisiae, UniProt P53197); assay: Fluorescence anisotropy, 10 nM Cy5-labeled degron peptide, yeast Cdh1 WD40; details: up to 30.6 µM Cdh1^WD40; for Kd: Fig. 1a, mean of 2 or 3 independent experiments, wash buffer B, 25 °C, dark peptide where named 100 µM unlabeled, read-out: KD (mean ± SE)
T4 construct: the WD40 domains of yeast Cdh1 (aa 241–550; pNH144); 2xStrep-Tag II (N); made in house; host or cells: Sf9 insect cells (baculovirus)
T4 sequence (P53197 241-550): T2 sequence (P53197 241-550)
Source text: To determine the affinities of APC/C degrons for their binding sites, we first used conventional equilibrium binding assays of degron peptide binding to the activator. We used the baculovirus system to produce the WD40 domain of Cdh1 from the budding yeast Saccharomyces cerevisiae and measured fluorescence anisotropy to assess the binding of fluorescently-tagged degron peptides at increasing activator concentrations. The WD40 domain of yeast Cdc20 could not be expressed and was not studied.
as §1
Fluorescent degron peptides carried a C-terminal Cy5 label (CPC Scientific) and are listed in Supplementary Table 4. For anisotropy experiments, 10 nM fluorescent peptide was mixed with various concentrations of purified Cdh1 WD40 in wash buffer B at room temperature for 1 min, which we determined was sufficient for the binding reaction to reach equilibrium. Fluorescence was measured on a K2 Multifrequency Fluorometer at 25 °C. All Cy5-labeled peptides were excited with polarized light at 635 nm and emission was detected using a 700/75 nm bandpass filter (ET series, Chroma). […] Data were fitted to one-site equilibrium binding using GraphPad Prism version 8.4 to determine KD. Results were the same when peptide binding was measured in the buffer used in SMOR assays (buffer C, below).

[5] = Supplementary Table 1, replicate 1 (movie listed first)
[6] = Supplementary Table 1, replicate 2 (movie listed second)
[7] = Supplementary Table 1, replicate 1
[8] = Supplementary Table 1, replicate 2

T3 sequence (Q9UM11 165-484): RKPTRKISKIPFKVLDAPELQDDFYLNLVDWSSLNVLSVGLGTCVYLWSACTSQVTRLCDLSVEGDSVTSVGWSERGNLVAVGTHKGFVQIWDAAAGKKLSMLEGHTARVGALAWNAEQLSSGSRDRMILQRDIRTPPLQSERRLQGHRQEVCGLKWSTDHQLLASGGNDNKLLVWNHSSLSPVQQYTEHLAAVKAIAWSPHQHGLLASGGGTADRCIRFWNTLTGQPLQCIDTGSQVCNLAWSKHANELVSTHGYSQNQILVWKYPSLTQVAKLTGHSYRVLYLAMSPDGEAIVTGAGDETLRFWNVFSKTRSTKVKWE
T1 sequence (Q12834 162-484): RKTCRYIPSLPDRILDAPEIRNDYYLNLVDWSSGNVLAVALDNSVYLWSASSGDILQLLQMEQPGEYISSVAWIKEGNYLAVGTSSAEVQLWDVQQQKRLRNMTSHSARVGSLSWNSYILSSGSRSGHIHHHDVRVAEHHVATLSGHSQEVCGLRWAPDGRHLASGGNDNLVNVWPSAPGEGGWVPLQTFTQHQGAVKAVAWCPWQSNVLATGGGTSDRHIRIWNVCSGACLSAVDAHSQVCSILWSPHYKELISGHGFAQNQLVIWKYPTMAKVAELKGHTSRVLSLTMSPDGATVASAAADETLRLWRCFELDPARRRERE

| Molecule | Dwell Time [1, 5] | Dwell Time [1, 6] | mean dwell time ([1]; less than three times the frame rate, therefore less reliable (footnote a)) | Dwell Time (in words) [2, 7] | Dwell Time (in words) [2, 8] | Dwell Time (in words) [3, 7] | Dwell Time (in words) [3, 8] | Kd [4] | binding to Cdh1 (in words) [4] | binding (in words) [1] | Dwell Time (in words) [1, 7] | binding (in words) [2] | binding (in words) [3] | Dwell Time (in words) [1, 8] | Dwell Time [3, 5] | Dwell Time [3, 6] | mean dwell time [3] |
| --- | --- | --- | --- | --- | --- | --- | --- | --- | --- | --- | --- | --- | --- | --- | --- | --- | --- |
| CC(C)C[C@H](NC(=O)[C@H](C)NC(=O)[C@H](CCCNC(=N)N)NC(=O)[C@H](CCCNC(=N)N)NC(=O)[C@@H]1CCCN1C(=O)[C@H](CCCCN)NC(=O)[C@H](CO)NC(=O)[C@H](CC(=O)O)NC(=O)[C@@H](N)CCC(N)=O)C(=O)N[C@H](C(=O)N[C@@H](CC(=O)O)C(=O)N[C@H](C(=O)N1CCC[C@H]1C(=O)N[C@H](C(=O)N[C@@H](CC(N)=O)C(=O)N[C@@H](CC(N)=O)C(=O)N[C@@H](CC(N)=O)C(=O)N1CCC[C@H]1C(=O)N[C@@H](CC(C)C)C(=O)N[C@@H](CO)C(=O)N[C@@H](CCC(N)=O)C(=O)N[C@@H](CCCCN)C(=O)O)C(C)C)C(C)C)[C@@H](C)O [Clb5 D box] (H-QDSKPRRALTDVPVNNNPLSQK-OH; N-terminus and C-terminus assumed) | 0.054 ± 0.001 s | 0.058 ± 0.001 s | 0.054 s^a | single frame | single frame | single frame | single frame | > 30.6 µM | Neither D box displayed significant binding to Cdh1 | – | – | – | – | – | – | – | – |
| CC[C@H](C)[C@H](NC(=O)[C@H](CC(=O)O)NC(=O)[C@H](CO)NC(=O)[C@H](C)NC(=O)[C@H](C)NC(=O)[C@H](C)NC(=O)[C@H](C)NC(=O)[C@H](CCCCN)NC(=O)[C@@H]1CCCN1C(=O)[C@H](CCCCN)NC(=O)[C@H](CCC(N)=O)NC(=O)[C@@H](N)CCC(=O)O)C(=O)N[C@H](C(=O)N[C@@H](C)C(=O)N[C@@H](CO)C(=O)N[C@@H](Cc1ccccc1)C(=O)N[C@@H](CC(N)=O)C(=O)N[C@@H](CCCCN)C(=O)N[C@@H](CCSC)C(=O)N[C@@H](CC(N)=O)C(=O)N[C@@H](CCCCN)C(=O)O)[C@@H](C)O [Hsl1 D box mutant] (H-EQKPKAAAASDITASFNKMNK-OH; N-terminus and C-terminus assumed) | – | – | – | no binding | no binding | no binding | – | > 30.6 µM | Binding was abolished | No binding | no binding | negligible binding; also recorded: No binding | No binding | – | – | – | – |
| CC[C@H](C)[C@H](NC(=O)[C@H](Cc1ccccc1)NC(=O)[C@H](CO)NC(=O)[C@H](CCCCN)NC(=O)[C@H](CO)NC(=O)[C@H](CCCNC(=N)N)NC(=O)[C@H](CC(N)=O)NC(=O)[C@H](CC(N)=O)NC(=O)[C@H](CC(=O)O)NC(=O)[C@H](CCCCN)NC(=O)[C@H](C)NC(=O)[C@H](C)NC(=O)[C@H](CC(C)C)NC(=O)[C@@H]1CCCN1C(=O)[C@H](CC(C)C)NC(=O)[C@H](CCCNC(=N)N)NC(=O)CNC(=O)[C@H](CCC(N)=O)NC(=O)[C@H](CCC(N)=O)NC(=O)[C@H](CCC(N)=O)NC(=O)[C@H](C)N)C(=O)N[C@@H](CCCCN)C(=O)O [ySecurin D box] (H-AQQQGRLPLAAKDNNRSKSFIK-OH; N-terminus and C-terminus assumed) | – | – | – | single frame | single frame | single frame | single frame | > 30.6 µM | Neither D box displayed significant binding to Cdh1 | – | single frame | – | – | single frame | – | – | – |
| LIYVDKENGEPGTR-K(Cy5) [hSecurin KEN, Cy5-labeled KEN box peptide of human securin/Pttg1] | – | – | – | no binding | no binding | – | – | – | – | did not bind human Cdc20^WD40; also recorded: No binding | no binding | No binding | – | no binding | 0.171 ± 0.004 s | 0.174 ± 0.003 s | 0.174 ± 0.003 s and 0.174 s |
| LPKATRKALGTVNRATEKSVK-K(Cy5) [AurKB D box, Cy5-labeled D box peptide of Aurora B kinase] | – | – | – | single frame | single frame | – | – | – | – | single-frame interactions only | single frame | – | – | single frame | 0.202 ± 0.003 s | 0.135 ± 0.003 s | 0.202 ± 0.003 s and 0.202 s |
